Experiment: Human HepG2 cell viability assay in 384 well format
Format: toxicity, cell-based
Set-up: dose 125 nL, time 70.5 hour; cytotoxicity at 70.5 h: concentration not given beside the values
Settings: HepG2 cells, read-out: Inhibition

| Structure (SMILES) | cytotoxicity at 70.5 h [%] |
| --- | --- |
| Cc1cc(C)c(CNC(=O)N2CCN(c3cnccn3)CC2)c(=O)[nH]1 | -4.71 |
| CCC(C(=O)NCc1csc(-c2ncccn2)n1)n1cccn1 (configuration not stated) | 13 |
| CCc1ccc(NC(=O)C(C)Nc2cccc3c2OCCO3)cc1 (configuration not stated) | 2 |
| CNc1ncc2c(n1)CN(CCc1ccc(Cl)cc1)C2=O | -5.88 |
| CNC(=O)Cc1ccccc1NC(=O)N[C@H]1c2ccccc2C[C@H]1O | -13.7 |
| N#Cc1cccc(N2CCC3(CCC(=O)N(CC(N)=O)C3)CC2)n1 | -8.42 |
| O=C(c1cccc(CO)n1)N1CCOC(c2ccc(Cl)c(Cl)c2)C1 (configuration not stated) | -9.7 |
| CS(=O)(=O)NC1CCCN(c2ccc(C#N)cn2)C1 (configuration not stated) | -6.77 |
| O=C(NC1CCCN(c2ccc(OC(F)F)cc2)C1)c1ccon1 (configuration not stated) | -1.24 |
| CC(C)n1cc(CN2CCCN(C(=O)c3cccn3C)CC2)cn1 | -2.47 |
| Cc1cnc(N2CCC3(CC2)COCCN(C(C)C)C3)nc1 | -8.08 |
| CC(=O)NCC(=O)N1Cc2nccn2CC(CN2CCCC2)C1 (configuration not stated) | 0.0844 |
| Cc1cc(NC(=O)N2CCOCC2)nn1-c1cccc(Cl)c1 | -2.25 |
| Cc1cnc(N2C[C@H]3CCN(CC4CC4)C[C@@H]3C2)nc1 | 7.8 |
| Cc1ccc(CNc2cc3c(cc2Cl)NC(=O)CO3)cc1C | -5.39 |
| Cn1cnc2cc(C(=O)NS(=O)(=O)CC3CCCC3)ccc21 | 0.122 |
| COc1c(CNCc2ccc(Cn3cccn3)cc2)c(C)nn1C | 3.44 |
| Cc1cnn(CC2CCCN2CC(=O)Nc2cc(C)no2)c1 (configuration not stated) | -3.79 |
| NC(=O)CC1CCCN(c2cncc(OCc3ccccc3)n2)C1 (configuration not stated) | 21.3 |
| CCN(CC)S(=O)(=O)CCNC(=O)c1cc2cccc(F)c2o1 | -1.2 |
| CN(C)c1ccc(CNC(=O)NCCc2cn3ccccc3n2)cn1 | -3.45 |
| CN(C)c1cc(C2CCCN(S(=O)(=O)c3cn[nH]c3)C2)ccn1 (configuration not stated) | -1.45 |
| COCC(=O)Nc1cnc(N2CCN(c3ccccc3)CC2)nc1 | 2.64 |

| Structure (SMILES) | cytotoxicity at 70.5 h [%] |
| --- | --- |
| Cc1cccc(NC(=O)c2ccc(OCc3nnnn3C)cc2)n1 | 14.4 |
| Cn1cc(S(=O)(=O)N(CC(F)(F)F)C2CC2)cc1C(N)=O | -4.65 |
| O=C(NCC1CC(=O)N(CCc2ccccc2)C1)c1ccc[nH]1 (configuration not stated) | -8.75 |
| COc1ccccc1-c1cc(NC(=O)CC2CCS(=O)(=O)C2)[nH]n1 (configuration not stated) | -9.57 |
| Cc1cc(CN2CCN(Cc3ccccc3F)CC2)no1 | 6.67 |
| COc1ccc(-c2n[nH]cc2CN(C)Cc2nonc2C)c(F)c1 | -3.77 |
| Cc1cc(C)c(CNC(=O)CC2CCCO2)c(=O)[nH]1 (configuration not stated) | -3.05 |
| c1ccc2c(c1)CC(n1ccnc1-c1cc3n(n1)CCCNC3)CO2 (configuration not stated) | -6.83 |
| COc1ccc(CNC(Cc2cccs2)c2nc(C)c(C)s2)cc1OC (configuration not stated) | 2.99 |
| CC(C)c1nccc(CN2CCCC(O)(CN(C)C)CC2)n1 (configuration not stated) | -7.74 |
| O=C(NCc1ccccn1)NC1CCOc2ccccc21 (configuration not stated) | 20.6 |
| O=C(NCC1(c2ccc(F)cc2)CCC1)N1CCC2(C1)OCCO2 | -8.6 |
| CCn1c(C)cc(-c2csc(Cn3ccc(=O)[nH]c3=O)n2)c1C | -4.42 |
| CC(=O)Nc1ccc(C(=O)N2CCOc3nc(C)ccc32)cc1 | -0.0601 |
| CC(C)N1CCC(NC(=O)NCCC(=O)NCc2ccccc2)C1 (configuration not stated) | 10.4 |
| O=C(CC1CCN(c2cccnn2)CC1)NC1CCOCC1 | -17 |
| CCOC(C)c1nccn1Cc1c(C)noc1C (configuration not stated) | -2.96 |
| CN(Cc1ccc2c(c1)OCO2)C(=O)C1CC(c2cccc(F)c2)=NO1 (configuration not stated) | -9.63 |
| Cc1nnc2n1CCN(Cc1ccc3c(c1)OCCO3)C2 | -2.45 |
| CC(C)(C)c1cc(=O)n2c(n1)SCC(C(=O)NCc1ccco1)C2 (configuration not stated) | 29.2 |
| COc1ccc(-c2cnc3c(c2)CN(C2CC2)C(=O)CCN3)cc1 | -4.59 |
| CC(C)(C)NC(=O)[C@@H]1CNC[C@]12Cc1ccccc1C(=O)N2 | -4.03 |
| CN(C)C(=O)N1Cc2ccccc2C2(CCNCC2)C1 | 28.5 |

| Structure (SMILES) | cytotoxicity at 70.5 h [%] |
| --- | --- |
| CCc1nc(CN2CCCC(NCc3nnc(C4CC4)o3)C2)no1 (configuration not stated) | 0.376 |
| CC(C)CN1CCc2[nH]cnc2C12CCN(C(=O)c1ccnn1C)CC2 | -2.45 |
| CCS(=O)(=O)N1C[C@H]2CC[C@](O)(c3ccc(C)cc3)[C@H]2C1 | 2.5 |
| CN1CCN(C[C@H]2OC[C@@H]3CCN(C(=O)c4cnccn4)C[C@@H]32)CC1 | -2.22 |
| c1ccc(-c2cccc(N3CCC(NCCc4cscn4)CC3)c2)cc1 | -7.94 |
| NC(=O)c1ccc(C(=O)N(Cc2ccc(O)cc2)CC2CC2)cc1 | 6.44 |
| O=C(NCC1CCS(=O)(=O)C1)N1CCN(c2cnccn2)CC1 (configuration not stated) | 3.28 |
| CCOc1ncccc1NC(=O)c1cc2c(s1)CCC2 | 1.84 |
| O=C(NCc1ccc2c(c1)OCCO2)N1CCC(CO)CC1 | 4.7 |
| CC(NC(=O)NCCn1ccnc1)c1ccc2c(c1)CCC(=O)N2 (configuration not stated) | 13.7 |
| O[C@@H]1C[C@@](CNCc2ccccn2)(COc2cccnc2)C[C@@H]1O | -8.64 |
| CCn1cc(NC(=O)NCC(O)COc2cccc(F)c2)cn1 (configuration not stated) | -4.45 |
| CS(=O)(=O)Cc1nc(CN2CCOc3ccccc3C2)cs1 | -6.97 |
| c1cnc(-c2nc(CN3CCCC(Cn4cncn4)C3)cs2)nc1 (configuration not stated) | -11 |
| CO[C@H]1C[C@@H]2CN(C(=O)c3cc4cccc(F)c4[nH]3)C[C@@H]2C1 | -6.67 |
| CO[C@H]1CNC[C@@H]1NC(=O)c1cc(C)nc2ccc(C)cc12 | 12.1 |
| CS(=O)(=O)CCNCc1ccc(OCc2ccccn2)cc1 | 0.418 |
| CN(CC(=O)NC1(C#N)CCCC1)C1CCCN(c2cccnn2)C1 (configuration not stated) | -1.63 |
| COC(=O)c1occc1Cn1cc(Br)cn1 | -2.08 |
| Cc1ccc2nc(CN(Cc3ccc(C)o3)C(C)C)cc(=O)n2c1 | -11.5 |
| COc1cccc(SCC(=O)N2CCCC(N3CCCC3=O)C2)c1 (configuration not stated) | -1.58 |
| CS(=O)(=O)c1cn[nH]c1C1CCCN(C(=O)CN2CCOCC2)C1 (configuration not stated) | -5.31 |
| CCN1Cc2c(C(=O)NCC3CC3)ncn2-c2ccccc2S1(=O)=O | -9.23 |

| Structure (SMILES) | cytotoxicity at 70.5 h [%] |
| --- | --- |
| CNS(=O)(=O)CC1CCCN1C(=O)c1ccc(C)c(C)c1 (configuration not stated) | 25.9 |
| Cc1ccsc1-c1nccn1CCN1CCCCC1CO (configuration not stated) | -4.24 |
| O=C1Nc2ccccc2NC12CCN(c1cccc(C(F)(F)F)n1)CC2 | 52.4 |
| Cc1cccnc1NC(=O)NC(CCO)C(C)(C)C (configuration not stated) | -2.8 |
| COCc1cccc(NC(C)C(=O)N(C)Cc2cccc(F)c2)c1 (configuration not stated) | -2.97 |
| O=C1CC[C@H]2CN(Cc3cccnc3)CC[C@H]2N1CCc1c[nH]cn1 | -1.83 |
| Cc1ccc(C)c(N2CCN(CC3(O)CCNC3)CC2)c1 (configuration not stated) | -0.198 |
| O=C(C1CC(F)(F)C1)N1C[C@@H]2CN(CC3CCCC3)CCO[C@@H]2C1 | 22.1 |
| CC(=O)N1CCN(Cc2ccc(F)c(C(F)(F)F)c2)CC(O)C1 (configuration not stated) | -8.55 |
| CN(Cc1ncc(-c2ccccc2C(=O)O)s1)c1ncccn1 | 31.6 |
| CC1CCN(C(=O)CN2CC(c3nc(C4CC4)no3)C2)CC1 | 23.6 |
| CCN(Cc1cccc(F)c1)S(=O)(=O)N1CCOCC1 | 0.239 |
| CCCc1nc(CN2CCCN(Cc3nccn3C)CC2)no1 | -14.9 |
| CCc1ccccc1-n1nnc(C(=O)O)c1-c1ccccn1 | -8.12 |
| N#Cc1cn(CC(=O)NC2CC2)c2ccc(Br)cc2c1=O | -7.46 |
| CCOc1ncnc2c1CCN(S(=O)(=O)C1CC1)CC2 | 14 |
| O=C(Cn1ccc2ccc(Br)cc21)NC[C@@H]1CCCN2CCCC[C@H]12 | 41.4 |
| COc1cccc2c1ccn2CCNC(=O)C1CCC1 | -13.3 |
| O=C1CCCN1Cc1nnc2n1CCCN(C(=O)c1ccco1)C2 | 22.7 |
| Cn1cccc1C(=O)N1CCc2c(CNS(C)(=O)=O)cncc2C1 | -18.4 |
| Cc1nc(N2CCN(C(=O)c3ccncc3)CC2)c2c(n1)c(C)nn2C | 19.4 |
| Cc1cn(-c2ccccc2)nc1NS(=O)(=O)c1ccc(C(=O)O)cc1F | -18 |
| Cc1nc(CN2C[C@@H]3CN(c4ncccn4)C[C@@H]3C2=O)cs1 | -10.3 |

| Structure (SMILES) | cytotoxicity at 70.5 h [%] |
| --- | --- |
| Cn1nc(Cn2cccn2)c2c1CN(Cc1ccoc1)C2 | -3.73 |
| O=C(NCCNc1ncccn1)N1CCc2ccccc2C1 | 8.69 |
| CCC(C)(CNC(=O)Nc1nncs1)N1CCOCC1 (configuration not stated) | -13.4 |
| c1cnc(NCc2cncc3c2CCN(Cc2ccoc2)C3)nc1 | -8.36 |
| CCc1cc(N2CCC(n3cc(C(=O)NC4CC4)nn3)CC2)ncn1 | 12.5 |
| Cc1cnn(C2CCCN(C(=O)c3ccc(OCC4CC4)nc3)C2)c1 (configuration not stated) | -3.84 |
| c1ccc(NCc2cn3c(n2)CN(Cc2cccnc2)CC3)nc1 | -10 |
| CCCN1CC2(CCN(c3ncc(F)cn3)CC2)CC1C(=O)O (configuration not stated) | -7.12 |
| Nc1cc2c(nn1)CCN(C(=O)c1ccccc1Oc1cccnc1)C2 | -1.03 |
| Cc1nc(N(C)C)nc(-c2cccc(-c3ccn(CCCF)n3)c2)c1C | -10.9 |
| Cc1ccc(C(=O)OC(C)Cn2cccn2)c(=O)[nH]1 (configuration not stated) | -0.535 |
| CSc1ccc(-c2cc(CN)nc3ccnn23)cc1 | -12.2 |
| Cc1ccc(C(=O)NS(=O)(=O)Cc2ccccc2)cc1S(C)(=O)=O | -2.97 |
| O=C([C@H]1C[C@H]2[C@H](CCN2Cc2cccs2)O1)N1CCOCC1 | -16.9 |
| CCCS(=O)(=O)N1CC[C@@H]2[C@@H]1CC(=O)N2Cc1csc(C)n1 | -4.88 |
| Cc1ccnc(OCC(=O)N2CCN(c3ncccn3)CC2)n1 | -12.6 |
| CCOC(=O)N1CCN(C(=O)Cc2c(C)nc(C)[nH]c2=O)CC1 | 13.6 |
| CCOC1CCCN(C(=O)c2[nH]nc(C(C)C)c2Br)C1 (configuration not stated) | 11.3 |
| Cc1cc2n(n1)CC(CNCc1cnn(C)c1)CN2 (configuration not stated) | -15 |
| CCCNC(=O)CNC(=O)c1scnc1C | 3.25 |
